# Data: patent US20050245399A1, “Pyrazole derivatives as herbicidal compositions containing them” (ISHIHARA SANGYO KAISHA, LTD., priority 2004, published 2005)
# Columns and labels:
# Type in all cases: in vivo
# [1] = system: prickly sida (Sida spinosa L.), SIDSP; assay: Test Example 2 post-emergence (foliage treatment) herbicidal activity, SIDSP; details: 63 g a.i./ha
# Procedure, shortened: (§1)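 A small sprayer delivered the diluted WP or EC formulation (500 L/ha water, 0.1% v/v spreader) over emerged seedlings in upland soil pots. Damage relative to untreated plants was graded visually from 0 to 100% three weeks or so later (days 20-23).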
# [2] = system: barnyardgrass (Echinochloa crus-galli L.): ECHCG; assay: Test Example 1 pre-emergence herbicidal activity, ECHCG; details: Rate 63 g a.i./ha, visually observed 20th to 23rd day after application
# Procedure, shortened: (§2)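 Upland soil pot test. Formulated compound (wettable powder or emulsifiable concentrate) in water, 500 L/ha, sprayed one day after sowing before emergence; % control rated by eye on day 20–23.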
# [3] = system: barnyardgrass (Echinochiloa oryzicola: ECHOR); assay: Test Example 3 water application herbicidal activity (paddy), ECHOR; details: 63 g a.i./ha, water application under submerged condition at 0.5 leaf stage, visually observed 14th day after application; 0 = untreated control, 100 = complete kill
# Procedure, shortened: (§3)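 Submerged application in flooded paddy soil (3–4 cm water); weeds treated at 0.5-leaf stage, transplanted rice 4 d after transplanting. Scored visually as % growth control: weeds at 14 d, rice at 21 d.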
# [4] = system: prickly sida (Sida spinosa L.): SEDSP; assay: Test Example 1 pre-emergence herbicidal activity, SIDSP; details: Rate 63 g a.i./ha, visually observed 20th to 23rd day after application
# Procedure, shortened: as §2
# [5] = system: redroot pigweed (Amaranthus retroflexus L.), AMARE; assay: Test Example 2 post-emergence (foliage treatment) herbicidal activity, AMARE; details: 63 g a.i./ha
# Procedure, shortened: (§4)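 Leaf stages at treatment differed per species: 1.1-2.1 for ECHCG, 1.0-2.0 for DIGSA, 0.1-1.5 for AMARE and 1.0-2 for ORYSA. Plants grew in pots of upland soil and were sprayed with wettable powder or emulsifiable concentrate in water (500 L/ha) plus spreader at 0.1% (v/v). Visual % control followed on days 20-23.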
# [6] = system: crabgrass (Digitaria sanguinalis L.), DIGSA; assay: Test Example 2 post-emergence (foliage treatment) herbicidal activity, DIGSA; details: 63 g a.i./ha
# Procedure, shortened: as §4
# [7] = system: rice (Oryza sativa L.), ORYSA; assay: Test Example 2 post-emergence (foliage treatment) herbicidal activity, ORYSA; details: 63 g a.i./ha
# Procedure, shortened: as §4
# [8] = system: corn (Zea mays L.), ZEAMX; assay: Test Example 2 post-emergence (foliage treatment) herbicidal activity, ZEAMX; details: 63 g a.i./ha
# Procedure, shortened: as §1
# [9] = system: velvetleaf (Abutilon theophrasti): ABUTH; assay: Test Example 1 pre-emergence herbicidal activity, ABUTH; details: Rate 63 g a.i./ha, visually observed 20th to 23rd day after application
# Procedure, shortened: as §2
# [10] = system: green foxtail (Setaria viridis L.): SETVI; assay: Test Example 1 pre-emergence herbicidal activity, SETVI; details: Rate 63 g a.i./ha, visually observed 20th to 23rd day after application
# Procedure, shortened: as §2
# [11] = system: rice (Oryza sativa L.: ORYSA); assay: Test Example 3 water application herbicidal activity (paddy), transplanted rice ORYSA; details: 63 g a.i./ha, water application 4th day after transplantation of 2 leaf stage rice, visually observed 21st day after application; 0 = untreated control, 100 = complete kill
# Procedure, shortened: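 Rice at 2-leaf stage is transplanted into flooded puddled soil and treated by water application 4 days later, at a predetermined active-ingredient dose. Crop injury is rated visually as growth control (0–100%) 21 days after treatment.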
# [12] = system: wheat (Triticum aestivum L.), TRZAX; assay: Test Example 2 post-emergence (foliage treatment) herbicidal activity, TRZAX; details: 63 g a.i./ha
# Procedure, shortened: as §1
# [13] = system: velvetleaf (Abutilon theophrasti), ABUTH; assay: Test Example 2 post-emergence (foliage treatment) herbicidal activity, ABUTH; details: 63 g a.i./ha
# Procedure, shortened: as §1
# [14] = system: green foxtail (Setaria viridis L.), SETVI; assay: Test Example 2 post-emergence (foliage treatment) herbicidal activity, SETVI; details: 63 g a.i./ha
# Procedure, shortened: as §1
# [15] = system: soybean (Glycine max Merr.): GLXMA; assay: Test Example 1 pre-emergence herbicidal activity, GLXMA; details: Rate 63 g a.i./ha, visually observed 20th to 23rd day after application
# Procedure, shortened: as §2
# [16] = system: soybean (Glycine max Merr.), GLXMA; assay: Test Example 2 post-emergence (foliage treatment) herbicidal activity, GLXMA; details: 63 g a.i./ha
# Procedure, shortened: as §1
# [17] = system: crabgrass (Digitaria sanguinalis L.): DIGSA; assay: Test Example 1 pre-emergence herbicidal activity, DIGSA; details: Rate 63 g a.i./ha, visually observed 20th to 23rd day after application
# Procedure, shortened: as §2
# [18] = system: japanese bulrush (Scirpus juncoides: SCPJO); assay: Test Example 3 water application herbicidal activity (paddy), SCPJO; details: 63 g a.i./ha, water application under submerged condition at 0.5 leaf stage, visually observed 14th day after application; 0 = untreated control, 100 = complete kill
# Procedure, shortened: as §3
# [19] = system: japanese ribbon wapato (Sagittaria pygmaea: SA GPY); assay: Test Example 3 water application herbicidal activity (paddy), SAGPY; details: 63 g a.i./ha, water application under submerged condition, tubers planted, visually observed 14th day after application; 0 = untreated control, 100 = complete kill
# Procedure, shortened: as §3
# [20] = system: rice (Oryza sativa L.): ORYSA; assay: Test Example 1 pre-emergence herbicidal activity, ORYSA; details: Rate 63 g a.i./ha, visually observed 20th to 23rd day after application
# Procedure, shortened: as §2
# [21] = system: barnyardgrass (Echinochloa crus-galli L.), ECHCG; assay: Test Example 2 post-emergence (foliage treatment) herbicidal activity, ECHCG; details: 63 g a.i./ha
# Procedure, shortened: as §4
# [22] = system: wheat (Triticum aestivum L.): TRZAX; assay: Test Example 1 pre-emergence herbicidal activity, TRZAX; details: Rate 63 g a.i./ha, visually observed 20th to 23rd day after application
# Procedure, shortened: as §2
# [23] = system: corn (Zea mays L.): ZEAMX; assay: Test Example 1 pre-emergence herbicidal activity, ZEAMX; details: Rate 63 g a.i./ha, visually observed 20th to 23rd day after application
# Procedure, shortened: as §2
# [24] = system: redroot pigweed (Amaranthus retroflexus L.): AMARE; assay: Test Example 1 pre-emergence herbicidal activity, AMARE; details: Rate 63 g a.i./ha, visually observed 20th to 23rd day after application
# Procedure, shortened: as §2
SMILES,"growth controlling degree, SIDSP [1]",Pre-emergence Herbicidal Activity ECHCG (growth controlling degree) [2],growth controlling degrees (%) ECHOR [3],Pre-emergence Herbicidal Activity SIDSP (growth controlling degree) [4],"growth controlling degree, AMARE [5]","growth controlling degree, DIGSP [6]","growth controlling degree, ORYSA [7]","growth controlling degree, ZEAMX [8]",Pre-emergence Herbicidal Activity ABUTH (growth controlling degree) [9],Pre-emergence Herbicidal Activity SETVI (growth controlling degree) [10],growth controlling degrees (%) ORYSA [11],"growth controlling degree, TRZAX [12]","growth controlling degree, ABUTH [13]","growth controlling degree, SETVI [14]",Pre-emergence Herbicidal Activity GLXMA (growth controlling degree) [15],"growth controlling degree, GLXMA [16]",Pre-emergence Herbicidal Activity DIGSP (growth controlling degree) [17],growth controlling degrees (%) SCPJO [18],growth controlling degrees (%) SAGPY [19],Pre-emergence Herbicidal Activity ORYSA (growth controlling degree) [20],also measured
COc1c(Cl)cc(F)c(-c2nn(C)c(OC(F)F)c2Cl)c1NC(=O)COc1ccc(C#N)cc1 [Compound 1-36],100%,10%,100%,20%,100%,60%,20%,0%,30%,60%,35%,10%,100%,60%,0%,50%,30%,40%,70%,10%,"growth controlling degree, ECHCO [21]: 50%; Pre-emergence Herbicidal Activity TRZAX (growth controlling degree) [22]: 0%; Pre-emergence Herbicidal Activity ZEAMX (growth controlling degree) [23]: 0%; Pre-emergence Herbicidal Activity AMARE (growth controlling degree) [24]: 100%"
C#CCNc1c(OC)c(Cl)cc(F)c1-c1nn(C)c(OC(F)F)c1Cl [Compound 1-53],100%,100%,100%,100%,100%,100%,95%,100%,100%,100%,70%,40%,100%,100%,30%,95%,100%,100%,100%,50%,"growth controlling degree, ECHCO [21]: 100%; Pre-emergence Herbicidal Activity TRZAX (growth controlling degree) [22]: 20%; Pre-emergence Herbicidal Activity ZEAMX (growth controlling degree) [23]: 20%; Pre-emergence Herbicidal Activity AMARE (growth controlling degree) [24]: 100%"
